In EP4417602A1, “SUBSTITUTED PYRAZOLE CARBOXAMIDES, SALTS THEREOF AND THEIR USE AS HERBICIDALLY ACTIVE SUBSTANCES” (Bayer AG, priority 2023, dated 2024):

Key:
ECHCG [1] = test: A. Herbicidal pre-emergence action on harmful plants (Tables A); assay type: in vivo, Echinochloa crus-galli; settings: visual grading after ca. 3 weeks vs untreated controls, 100% = plants have died off, 0% = as control plants
How it was run: (§1)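 Greenhouse pre-emergence test: compound applied to the soil surface at 1280 g/ha or below, and herbicidal effect rated visually at ca. 3 weeks on a 0–100% scale against untreated plants.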

LOLRI [2] = test: as above; assay type: in vivo, Lolium rigidum; settings: visual grading after ca. 3 weeks vs untreated controls, 100% = plants have died off, 0% = as control plants
How it was run: as §1

MATIN [3] = test: as above; assay type: in vivo, Matricaria inodora; settings: application rate 1280 g/ha; visual grading after ca. 3 weeks vs untreated controls; 100% = plants have died off, 0% = as control plants
How it was run: as §1

SETVI [4] = test: as above; assay type: in vivo, Setaria viridis; settings: visual grading after ca. 3 weeks vs untreated controls, 100% = plants have died off, 0% = as control plants
How it was run: as §1

STEME = test: as above; assay type: in vivo, Stellaria media; settings: visual grading after ca. 3 weeks vs untreated controls, 100% = plants have died off, 0% = as control plants
How it was run: as §1

POAAN [5] = test: as above; assay type: in vivo, Poa annua
How it was run: as §1

ALOMY [6] = test: as above; assay type: in vivo, Alopecurus myosuroides; settings: application rate 1280 g/ha; Table A9a
How it was run: as §1

DIGSA [7] = test: as above; assay type: in vivo, Digitaria sanguinalis
How it was run: as §1

ALOMY [8] = test: C. Herbicidal pre-emergence action, weed and crop plants (Tables C); assay type: in vivo, Alopecurus myosuroides; settings: application rate 320 g/ha; Table C2a
Text: (§2) Seeds of mono- and dicotyledonous weed plants and crop plants were sown, in plastic or organic planting pots, in sandy loam and covered with soil. The compounds according to the invention, formulated in the form of wettable powders (WP) or as emulsifiable concentrates (EC), were applied to the surface of the covering soil as aqueous suspension or emulsion, with the addition of 0.5% of an additive, at an application rate of 6001 of water/ha (converted). Following treatment, the pots were placed in a greenhouse and kept under optimum growth conditions for the test plants. The visual grading of the damage to the test plants was carried out after ca. 3 weeks in comparison to untreated controls (herbicidal effect in percent (%): 100% effect = plants have died off, 0% effect = as control plants). Tables C1 to C12 below show the effects of selected compounds of the general formula (I) according to table 1 on various harmful plants and an application rate corresponding to 320 g/ha or below obtained by the experimental procedure mentioned above. Table C1: pre-emergence activity at 320g/ha against KCHSC in %

DIGSA [9] = test: as above; assay type: in vivo, Digitaria sanguinalis; settings: application rate 320 g/ha; Table C5a
Text: as §2

ECHCG [10] = test: as above; assay type: in vivo, Echinochloa crus-galli; settings: application rate 320 g/ha; Table C6a
Text: as §2

MATIN [11] = test: as above; assay type: in vivo, Matricaria inodora; settings: application rate 320 g/ha; Table C8
Text: as §2

VIOTR = test: as above; assay type: in vivo, Viola tricolor; settings: application rate 320 g/ha; Table C12a
Text: as §2

ZEAMX [12] = test: D. Pre-emergence effects on crop plants (Tables D); assay type: in vivo, Zea mays; settings: crop plant; application rate 80 g/ha; Table D1b
Text: (§3) Seeds of mono- and dicotyledonous weed plants and crop plants were sown, in plastic or organic planting pots, in sandy loam and covered with soil. The compounds according to the invention, formulated in the form of wettable powders (WP) or as emulsifiable concentrates (EC), were applied to the surface of the covering soil as aqueous suspension or emulsion, with the addition of 0.5% of an additive, at an application rate of 6001 of water/ha (converted).
(§4) Following treatment, the pots were placed in a greenhouse and kept under optimum growth conditions for the test plants. The visual grading of the damage to the test plants was carried out after ca. 3 weeks in comparison to untreated controls (herbicidal effect in percent (%): 100% effect = plants have died off, 0% effect = as control plants).
(§5) Tables D1 to D5 below show the effects of various compounds of the general formula (I) according to Table 1 on various crop plants and an application rate corresponding to 320 g/ha or below obtained by the experimental procedure mentioned above in Biological Examples, Section C. Table D1a: pre-emergence activity at 320g/ha against ZEAMX in %

GLXMA [13] = test: D. Pre-emergence effects on crop plants (Tables D); assay type: in vivo, Glycine max; settings: crop plant; application rate 80 g/ha; Table D4b
Text: as §3, §4, §5

BRSNW [14] = test: D. Pre-emergence effects on crop plants (Tables D); assay type: in vivo, Brassica napus; settings: application rate 80 g/ha, crop plant
Text: as §3, §4, §5

ZEAMX [15] = test: F. Post-emergence effects on crop plants (Tables F); assay type: in vivo, Zea mays; settings: crop plant
Text: (§6) Seeds of mono- and dicotyledonous weed plants and crop plants were sown, in plastic or organic planting pots, in sandy loam, covered with soil and grown in a greenhouse under controlled growth conditions. 2 to 3 weeks after sowing, the test plants were sprayed in the single-leaf stage. The compounds according to the invention, formulated in form of wettable powders (WP) or as emulsifiable concentrates (EC), were sprayed onto the green plant parts as aqueous suspension or emulsion, with the addition of 0.5% of an additive, at an application rate of 6001 of water/ha (converted). The test plants were placed in the greenhouse for ca. 3 weeks under optimum growth conditions, and then the effect of the preparations was assessed visually in comparison with untreated controls (herbicidal effect in percent (%): 100% effect = plants have died off, 0% effect = as control plants). Tables F1 to F5 below show the effects of selected compounds of the general formula (I) according to table 1 on various crop plants and an application rate corresponding to 320 g/ha or below obtained by the experimental procedure mentioned above. Table […]: post-emergence activity at 320g/ha against ZEAMX in %

TRZAS = test: as above; assay type: in vivo, Triticum aestivum; settings: application rate 80 g/ha, crop plant
Text: as §6

GLXMA [16] = test: as above; assay type: in vivo, Glycine max; settings: application rate 320 g/ha, crop plant
Text: as §6

BRSNW [17] = test: as above; assay type: in vivo, Brassica napus; settings: application rate 80 g/ha, crop plant
Text: as §6

LOLRI [18] = test: B. Herbicidal post-emergence action on harmful plants (Tables B); assay type: in vivo, Lolium rigidum; settings: application rate 1280 g/ha; Table B3
Procedure: (§7) Seeds of mono- and dicotyledonous weed plants were placed in plastic pots in sandy loam soil (doubly sown with in each case one species of mono- or dicotyledonous weed plants per pot), covered with soil and cultivated in a greenhouse under controlled growth conditions. 2 to 3 weeks after sowing, the test plants were treated at the one-leaf stage. The compounds of the invention, formulated in the form of wettable powders (WP) or as emulsion concentrates (EC), were applied onto the green parts of the plants as aqueous suspension or emulsion with addition of 0.5% additive at a water application rate of 600 liters per hectare (converted). After the test plants had been kept in the greenhouse under optimum growth conditions for about 3 weeks, the activity of the preparations was rated visually in comparison to untreated controls. For example, 100% activity = the plants have died, 0% activity = like control plants. Tables B1 to B12, below, show the effects of selected compounds of the general formula (I) according to table 1 on various harmful plants and an application rate corresponding to 1280 g/ha or below obtained by the experimental procedure mentioned above. Table B1a: post-emergence activity at 1280g/ha against ABUTH in %

SETVI [19] = test: as above; assay type: in vivo, Setaria viridis; settings: application rate 1280 g/ha; Table B5
Procedure: as §7

POAAN [20] = test: as above; assay type: in vivo, Poa annua; settings: application rate 1280 g/ha; Table B7a
How it was run: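 Activity was scored visually as % damage (100% = dead, 0% = like untreated) about 3 weeks after treatment. Plants at the one-leaf stage, 2-3 weeks old, were sprayed with WP/EC formulations plus 0.5% additive (600 L/ha water, up to 1280 g/ha). Plants were grown in sandy loam in a greenhouse.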

[21] = application rate 80 g/ha, Table A7c
[22] = application rate 320 g/ha, Table A7b
[23] = application rate 1280 g/ha, visual grading after ca. 3 weeks vs untreated controls, 100% = plants have died off, 0% = as control plants
[24] = application rate 1280 g/ha, Table A12a

SMILES	pre-emergence activity against ECHCG (ECHCG [1]; application rate 320 g/ha)	pre-emergence activity against ECHCG (ECHCG [1]; application rate 1280 g/ha)	pre-emergence activity against LOLRI (LOLRI [2]; application rate 320 g/ha)	pre-emergence activity against LOLRI (LOLRI [2]; application rate 1280 g/ha)	pre-emergence activity against MATIN (MATIN [3])	pre-emergence activity against SETVI (SETVI [4]; application rate 1280 g/ha)	pre-emergence activity against STEME (STEME; application rate 1280 g/ha)	pre-emergence activity against POAAN (POAAN [5]; [21])	pre-emergence activity against POAAN (POAAN [5]; [22])	pre-emergence activity against POAAN (POAAN [5]; [23])	pre-emergence activity against DIGSA (DIGSA [7]; [24])	also measured
Cn1cc(C(=O)N2CCCC2Cc2ccccc2F)c(COCC(F)F)n1 (racemic) [Example I-044]	90%	100%	90%	90%	90%	90%	90%	90%	100%	100%	100%	pre-emergence activity against ALOMY (ALOMY [6]): 90%; pre-emergence activity against DIGSA (DIGSA [7]; application rate 320 g/ha, Table A12b): 90%; pre-emergence activity against ALOMY (ALOMY [8]): 90%; pre-emergence activity against DIGSA (DIGSA [9]): 90%; pre-emergence activity against ECHCG (ECHCG [10]): 90%; pre-emergence activity against MATIN (MATIN [11]): 90%; pre-emergence activity against VIOTR (VIOTR): 90%; pre-emergence activity against ZEAMX (ZEAMX [12]): 0%; pre-emergence activity against GLXMA (GLXMA [13]): 0%; pre-emergence activity against BRSNW in % (BRSNW [14]): 0%; post-emergence activity against ZEAMX in % (ZEAMX [15]; application rate 80 g/ha): 0%; post-emergence activity against ZEAMX in % (ZEAMX [15]; application rate 320 g/ha): 0%; post-emergence activity against TRZAS in % (TRZAS): 0%; post-emergence activity against GLXMA in % (GLXMA [16]): 0%; post-emergence activity against BRSNW in % (BRSNW [17]): 0%
COCc1c(C(=O)N2CCCC2Cc2c(F)cccc2F)cnn1C (racemic) [Example I-124]	90%	100%	90%	100%	100%	90%	90%	90%	100%	100%	90%	pre-emergence activity against SETVI (SETVI [4]; application rate 320 g/ha): 90%; pre-emergence activity against STEME (STEME; application rate 320 g/ha): 90%; post-emergence activity against LOLRI (LOLRI [18]): 90%; post-emergence activity against SETVI (SETVI [19]): 90%; post-emergence activity against POAAN (POAAN [20]): 90%
